pEC50: −log10 of the molar value.

Test [1] concerns Adult fleas (Ctenocephalides felis). In words: Flea feeding assay. The note with it: 1 ppm in blood, ~48 h membrane feeding, read-out: flea inhibition (% of dead+damaged fleas). As for the experimental part:
Adult fleas (Ctenocephalides felis) of defined age were fed on artificial membranes with blood spiked with declining concentrations of a test compound (dissolved in a DMSO-emulsifier-blood mixture). After approximately 48 hours of continuous feeding, flea inhibition (i.e., % of dead+damaged fleas per test concentration) was assessed. The vitality of used parasites was confirmed in negative control groups (i.e., an untreated control and a solvent control).

For test [2], the system named is Mobile stages of sea lice (pre-adults, adults of Lepeophtheirus salmonis). In words: Adult sea lice contact assay. The settings on record: pre-adults/adults, assessed after ~1 and 24 h, read-out: EC50 (sea lice inhibition, dead+damaged). Here is the method:
Mobile stages of sea lice (i.e., pre-adults, adults of Lepeophtheirus salmonis) were exposed to seawater spiked with declining concentrations of a test compound (dissolved in a PEG sea-water mixture). Sea lice inhibition (% of dead+damaged sea lice) was assessed after approximately 1 and 24 hours of continuous exposure in comparison to a negative (solvent) control group.

Test [3] concerns Lepeophtheirus salmonis. In words: Salmon - in vivo efficacy against sea lice using gavage administration. The note with it: po, 168 h, read-out: therapeutic efficacy against (pre-)adult sea lice (% reduction vs control), salmon, 5 mg/kg once by gavage, day -28 infestation, counted day 7.
Test [4] concerns Rhipicephalus microplus tick larvae. In words: Tick larvae contact assay. The settings on record: ~3 min immersion, assessed ~24 h after, read-out: Tick inhibition (% of damage+dead ticks). Here is the method: Tick larvae (Rhipicephalus microplus) were immersed for approximately 3 minutes in declining concentrations of a test compound (dissolved in a DMSO-emulsifier-deionized water mixture). Tick inhibition (% of damage+dead ticks per test concentration) was assessed approximately 24 hours after contact exposure. The vitality of used parasites was confirmed in negative control groups (i.e. an untreated control and a solvent control).

Test [5] relates to Lepeophtheirus salmonis. As to the kind of experiment: Salmon - in vivo efficacy against sea lice using gavage administration. The note with it: 5 mg/kg once by gavage, counted around day 28; for therapeutic efficacy against juvenile sea lice (% reduction vs control): day -3 infestation. Here is the method: Salmon (Salmo solar) were treated once orally by gavage at a dose of 5 mg/kg bodyweight per fish (Day 0). As formulation DMSO 5%/fish oil 95% was used. Salmon of the negative control group received only the excipients of the formulation.
The fish were infested with Lepeophtheirus salmonis copepodids twice before treatment (i.e., around day −28 and day −3) and once after treatment (i.e., day 17).
Around day 28 (end of animal phase), fish were euthanized, and lice on each fish were classified ((pre-)adult or juvenile stage) and counted. […] Efficacy is expressed as a % reduction of sea lice in treated groups versus a control group, using the Abbott's formula.

For test [6], the system named is Copepodids (juvenile sea lice stage of Lepeophtheirus salmonis). As to the kind of experiment: Juvenile sea lice contact assay. The note with it: Lepeophtheirus salmonis, ~24 h, read-out: Sea lice inhibition (% of dead+damaged copepodids); for inhibition at 0.01 µM: 10 nM in seawater. As for the experimental part:
Copepodids (juvenile sea lice stage of Lepeophtheirus salmonis) were exposed to seawater spiked with declining concentrations of a test compound (dissolved in a DMSO sea-water mixture). Sea lice inhibition (% of dead+damaged copepodids) was assessed after approximately 24 hours of continuous exposure. The vitality of used parasites was confirmed in a negative (solvent) control group.

The test system of test [7] is bed bugs (Cimex lectularius). In words: Guinea pig - efficacy against bed bug. In kind it is in vivo. Summed up: (§1)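 Guinea pigs given 5 mg/kg test compound orally (gavage) or s.c. in 10% DMF/emulsifier plus 90% water for injection, with local co-infestations of Ornithodoros moubata juveniles and Cimex lectularius at several post-treatment times. Engorged parasites scored dead/damaged about 24 h after collection; % inhibition versus pretreatment baseline by modified Schneider-Orelli formula.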

The test system of test [8] is juvenile soft ticks (Ornithodoros moubata). As to the kind of experiment: Guinea pig - efficacy against argaside tick. In kind it is in vivo. Summed up:
as §1

Test [9] deals with Rhipicephalus sanguineus or Haemaphysalis elliptica ticks. As to the kind of experiment: Dog - efficacy against ticks. The format is in vivo. The note with it: for therapeutic efficacy against ticks (active = efficacy ≥80 percent): D2. Here is the method:
(§2) Beagle dogs were infested (whole body) with 80 Ctenocephalides felis fleas and 50 Rhipicephalus sanguineus or Haemaphysalis elliptica ticks (sex ratio 1:1) two days before the treatment day (Day 0), and repeatedly thereafter. Dogs of treatment groups were treated with 10 mg/kg bodyweight of a test compound orally (compound weighed in gelatin capsule), topically (spot-on, DMA 92%/DEET 8%) or subcutaneously (PEG 200 90%/water for injection 10%). Dogs of the negative control group received only an empty gelatin capsule orally and the spot-on formulation excipients topically.
(§3) Compounds with efficacy ≥80 percent were found active.

Test [10] has as its system Ctenocephalides felis fleas. In words: Dog - efficacy against fleas. The settings on record: for therapeutic efficacy against fleas (active = efficacy ≥80 percent): D2. The format is in vivo. As for the experimental part: as §2, §3
The test system of the next test is Rhipicephalus microplus. As to the kind of experiment: Cattle - efficacy against one-host tick. The note with it: 1 mg/kg pour on in Imwitor 988+Miglyol 840. In kind it is in vivo. Here is the method:
Cattle were infested (whole body) with up to 3000 Rhipicephalus microplus larvae two or three times per week before and after the treatment day (Day 0). Cattle of treatment groups were treated subcutaneously or topically (spray or pour-on) at a dose of 1 mg/kg bodyweight of a test compound. As subcutaneous formulation either 2-pyrrolidon 50%/Tween 80 50% or NMP 60%/PEG300 40% was used. As topical formulation either a spray solution (DMF/Emulsifier 2%/tap water 98%) (Compound 4) or a DMA 92%/DEET 8% pour-on solution (all other compounds) or a pour-on solution containing Imwitor 988 (20%)+Miglyol 840 (QS) (Compound 453 and Compound 466) or a pour-on solution containing Miglyol 840 (QS) (Compound 453) was used. Cattle of the negative control group received only the formulation excipients of the respective administration route.
Fully engorged female ticks dropping from cattle were collected daily after treatment and counted in treatment and control groups. Efficacy was expressed using the standard ADEQ analysis method (ADEQ calculation in accordance with WAAVP guidelines for evaluating the efficacy of acaricides against ticks on ruminants; Veterinary parasitology 136 (2006) 29-43). Compounds with efficacy ≥80 percent were found active/effective. Onset of efficacy means the first Day with efficacy ≥80 percent. Duration of efficacy means the last Day with efficacy ≥80 percent.

Where [11] appears, read: 5 mg/kg subcutaneous, after 7 days.
Setting [12] is: 5 mg/kg, at least until Day 10, both administration routes (oral, subcutaneous).

Take `O=C(Nc1ncc(F)cc1F)c1cc(NC(=O)[C@H]2[C@H](c3ccc(F)c(Cl)c3)C2(Cl)Cl)ccc1Cl` [Compound 89]: the inhibition at 1 ppm in test [1] was 80%. Also, in test [2], the pEC50 was no less than 8.00. Besides, in the test on Lepeophtheirus salmonis [3], the inhibition in vivo at 5 mg/kg turned out to be 100%. Besides, the inhibition at 49 µM in [4] (49 μM) was found to be 80%. Moreover, the inhibition at 388 µM in test [4] (388 μM) stood at 80%. Also, the inhibition at 100 ppm in test [4] (100 ppm) was found to be 80%. The “therapeutic efficacy against juvenile sea lice (% reduction vs control)” value (shortened to “therapeutic efficacy … (% reduction vs control)”) in the test with Lepeophtheirus salmonis [5] is 100%. In addition, the inhibition at 0.01 µM in test [6] came out at 100%. In addition, the “activity against bed bugs (≥80% inhibition, killed+damaged)” value in [7] (5 mg/kg oral, Day 0) is “immediate activity”; in [7] (5 mg/kg subcutaneous, Day 0), “immediate activity”. Moreover, the “activity against tick nymphs (≥80% inhibition, killed+damaged)” value in [8] (5 mg/kg oral, Day 0) was “immediate activity”; in test [8] (5 mg/kg subcutaneous, Day 0) it was “immediate activity”.
Turning to `O=C(Nc1cnc(F)cc1F)c1cc(NC(=O)[C@H]2[C@H](c3cc(Cl)cc(Cl)c3)C2(Cl)Cl)ccc1Cl` [Compound 455], in [2], the pEC50 is no less than 8.00. Also, the inhibition in vivo at 5 mg/kg in the test on Lepeophtheirus salmonis [3] was determined as 100%. Moreover, in the test on Lepeophtheirus salmonis [5], the “therapeutic efficacy … (% reduction vs control)” value is given as 100%. Moreover, the inhibition at 0.01 µM in test [6] was determined as 100%. Besides, the “activity against bed bugs (≥80% inhibition, killed+damaged)” value in [7] (5 mg/kg oral, Day 0) is “immediate activity”; in test [7] (5 mg/kg subcutaneous, Day 0) it was “immediate activity”. Further, the “activity against tick nymphs (≥80% inhibition, killed+damaged)” value in test [8] (5 mg/kg oral, Day 0) is “immediate activity”; in [8] (5 mg/kg subcutaneous, Day 0), “immediate activity”. In addition, in test [8] (5 mg/kg, ticks and bed bugs), the “duration of efficacy, subcutaneous compared with oral administration” value was “longer duration of efficacy”.
On to `O=C(Nc1c(F)ccnc1F)c1cc(NC(=O)[C@H]2[C@H](c3cc(Cl)cc(Cl)c3)C2(Cl)Cl)ccc1Cl` [Compound 456], for which, in [2], the pEC50 was no less than 8.00. The inhibition in vivo at 5 mg/kg with Lepeophtheirus salmonis [3] turned out to be 80%. For the same compound, in the test on Lepeophtheirus salmonis [5], the “prophylactic efficacy at re-infestation on Day 17 (% reduction vs control)” value stood at 80%. In addition, the “therapeutic efficacy … (% reduction vs control)” value in the test on Lepeophtheirus salmonis [5] stood at 100%. Moreover, the inhibition at 0.01 µM in [6] was determined as 100%. Also, the “activity against bed bugs (≥80% inhibition, killed+damaged)” value in test [7] (5 mg/kg oral, Day 0) was “immediate activity”; in [7] (5 mg/kg subcutaneous, Day 0) it was “immediate activity”. Moreover, the “activity against tick nymphs (≥80% inhibition, killed+damaged)” value is “immediate activity” in [8] (5 mg/kg oral, Day 0) and “immediate activity” in [8] (5 mg/kg subcutaneous, Day 0).
Turning to `O=C(Nc1ncc(F)cn1)c1cc(NC(=O)[C@H]2[C@H](c3cc(Cl)cc(Cl)c3)C2(Cl)Cl)ccc1Cl` [Compound 460], in [2], the negative logarithm of the EC50 (pEC50) is no less than 8.00. Moreover, in the test on Lepeophtheirus salmonis [3], the inhibition in vivo at 5 mg/kg worked out at 100%. For the same compound, the “therapeutic efficacy … (% reduction vs control)” value with Lepeophtheirus salmonis [5] stood at 100%. Besides, the inhibition at 0.01 µM in test [6] was determined as 100%. The “activity against bed bugs (≥80% inhibition, killed+damaged)” value in test [7] (5 mg/kg oral, Day 0) is “immediate activity”; in [7] (5 mg/kg oral, after 7 days) it was “activity”; in test [7] (5 mg/kg subcutaneous, Day 0) it was “immediate activity”; in test [7] (setting [11]), “activity”. Also, the “activity against tick nymphs (≥80% inhibition, killed+damaged)” value in [8] (5 mg/kg oral, Day 0) is “immediate activity”; in test [8] (5 mg/kg subcutaneous, Day 0), “immediate activity”.
As to `O=C(Nc1cnc(F)cc1F)c1cc(NC(=O)[C@H]2[C@H](c3cc(Cl)c(Cl)c(Cl)c3)C2(Cl)Cl)ccc1Cl` [Compound 466], the pEC50 in [2] was no less than 8.00. Also, in the test with Lepeophtheirus salmonis [3], the inhibition in vivo at 5 mg/kg worked out at 80%. Moreover, the “therapeutic efficacy … (% reduction vs control)” value in the test on Lepeophtheirus salmonis [5] amounted to 80%. The inhibition at 0.1 µM in [6] (100 nM in seawater) was 100%. For the same compound, the “activity against bed bugs (≥80% inhibition, killed+damaged)” value in test [7] (5 mg/kg oral, Day 0) is “immediate activity”; in [7] (5 mg/kg oral, after 7 days), “activity”; in test [7] (5 mg/kg oral, after 10 days), “activity”; in test [7] (5 mg/kg oral, after 14 days), “activity”; in test [7] (5 mg/kg oral, after 17 days) it was “activity”; in test [7] (5 mg/kg subcutaneous, Day 0), “immediate activity”. Besides, the “activity against bed bugs (≥80% inhibition, killed+damaged)” value in [7] (setting [11]) is recorded as “activity”; in test [7] (5 mg/kg subcutaneous, after 10 days), “activity”; in test [7] (5 mg/kg subcutaneous, after 14 days) it was “activity”; in [7] (5 mg/kg subcutaneous, after 17 days), “activity”. Moreover, the “effective to control bed bugs” value in [7] (setting [12]) was 100%. For the same compound, the “efficacy against ticks in dogs (conclusion)” value in [9] (10 mg/kg) is on record as “therapeutic efficacy”. Further, the “therapeutic efficacy against ticks (active = efficacy ≥80 percent)” value in [9] (10 mg/kg oral) and in test [9] (10 mg/kg topical spot-on) was “active” each time. Also, in test [10] (10 mg/kg), the “efficacy against fleas in dogs (conclusion)” value was “therapeutic efficacy”. The “therapeutic efficacy against fleas (active = efficacy ≥80 percent)” value in [10] (10 mg/kg oral) and in [10] (10 mg/kg topical spot-on) was “active” in each case. For the same compound, the “activity against tick nymphs (≥80% inhibition, killed+damaged)” value in test [8] (5 mg/kg oral, Day 0) was “immediate activity”; in test [8] (5 mg/kg oral, after 7 days), “activity”; in test [8] (5 mg/kg oral, after 10 days), “activity”; in test [8] (5 mg/kg oral, after 14 days), “activity”; in test [8] (5 mg/kg subcutaneous, Day 0), “immediate activity”; in test [8] (setting [11]) it was “activity”. Besides, in test [8] (setting [12]), the “effective to control ticks” value is given as 100%. Further, the “duration of efficacy (last Day with efficacy ≥80 percent)” value in the test on Rhipicephalus microplus turned out to be 87 days. Also, the “onset of efficacy (first Day with efficacy ≥80 percent)” value in the test with Rhipicephalus microplus is 1 days.

What is called inhibition is the relative decrease from the control value, in per cent. A word on the pEC50: it is −log10 of the EC50, conventionally taken in molar units.
